Measurements reported in ChEMBL document CHEMBL3758089, “Giffonins J-P, Highly Hydroxylated Cyclized Diarylheptanoids from the Leaves of Corylus avellana Cultivar "Tonda di Giffoni"” (J Nat Prod, 2015).

Key:
Format in all cases: functional, cell-based
[1] = Cytotoxicity against human Saos2 cells […] after 24 hrs by crystal violet-staining based spectrophotometric assay; conditions: SAOS-2, 24 h
U2OS [2] = experiment: Cytotoxicity against human U2OS cells expressing wild-type p53 after 48 hrs by crystal violet-staining based spectrophotometric assay
U2OS [3] = experiment: Cytotoxicity against human U2OS cells expressing wild-type p53 after 24 hrs by crystal violet-staining based spectrophotometric assay
[4] = Cytotoxicity against human Saos2 cells […] after 48 hrs by crystal violet-staining based spectrophotometric assay; conditions: SAOS-2, 48 h

Compound	EC50 [1] [µM]	EC50 (U2OS [2]) [µM]	EC50 (U2OS [3]) [µM]	EC50 [4] [µM]
C[C@H]1OC(Oc2c(-c3ccc(O)cc3)oc3cc(O)cc(O)c3c2=O)[C@@H](O)[C@@H](O)[C@@H]1O (stereo partly drawn)	> 150	> 150	> 150	> 150
Oc1ccc2cc1-c1cc(ccc1O)C[C@H](O)[C@H](O)C(O)[C@@H](O)[C@H](O)C2 (stereo partly drawn)	> 150	> 150	> 150	> 150
O=C1CCc2ccc(O)c(c2)-c2cc(ccc2O)C[C@H](O[C@@H]2O[C@H](CO)[C@H](O)[C@@H](O)[C@H]2O)C[C@H]1O	> 150	> 150	> 150	> 150
COc1cc(/C=C/C(=O)CC(=O)/C=C/c2ccc(O)c(OC)c2)ccc1O [CURCUMIN]	48.6	22.8	34.4	28.1
C[C@H]1OC(Oc2c(-c3ccc(O)cc3)oc3cc(O)cc(O)c3c2=O)[C@@H](O)[C@@H](O)[C@@H]1OC(=O)/C=C/c1ccc(O)cc1 (stereo partly drawn)	> 150	> 150	> 150	> 150
O=C1C[C@@H](O)Cc2ccc(O)c(c2)-c2cc(ccc2O)C[C@H](O)[C@H]1O	> 150	> 150	> 150	> 150
O=C1CCc2ccc(O)c(c2)-c2cc(ccc2O)C[C@H](O)C[C@H]1O	> 150	> 150	> 150	> 150
COc1c2cc(c(OC)c1O)Oc1ccc(cc1)[C@@H](O)C[C@@H](O)CC/C=C\2	> 150	> 150	> 150	> 150
C[C@H]1OC(Oc2c(-c3ccc(O)c(O)c3)oc3cc(O)cc(O)c3c2=O)[C@@H](O)[C@@H](O)[C@@H]1O (stereo partly drawn)	> 150	> 150	> 150	> 150
Oc1ccc2cc1-c1cc(ccc1O)C[C@H](O)[C@@H](O)[C@@H](O)C[C@@H](O)C2	> 150	> 150	> 150	> 150
COc1c2cc(c(OC)c1O)Oc1ccc(cc1)[C@@H](O)C[C@@H](O)/C=C/C=C\2	> 150	> 150	> 150	> 150
C[C@H]1OC(Oc2c(-c3cc(O)c(O)c(O)c3)oc3cc(O)cc(O)c3c2=O)[C@@H](O)[C@@H](O)[C@@H]1O (stereo partly drawn)	> 150	> 150	> 150	> 150
